From PubChem BioAssay (NCI)
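Step 1: Grow cells in 96-well plates. Step 2: Expose to compound for 48 hours at 5 concentrations. Step 3: Interpolate endpoints linearly; if unreached, use highest concentration. The concentration for 50% growth inhibition is given as GI50. TGI is the concentration that stops growth completely.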

Assays:
Test in all cases: NCI anticancer screen, dose series, 48 h
[1] = system: 786-0 renal
[2] = system: A498 renal
[3] = system: A549 NSCLC
[4] = system: ACHN renal
[5] = system: BT-549 breast
[6] = system: CAKI-1 renal
[7] = system: CCRF-CEM leukemia
[8] = system: COLO 205 colon
[9] = system: DU-145 prostate
[10] = system: EKVX NSCLC
[11] = system: HCC-2998 colon
[12] = system: HCT-116 colon
[13] = system: HCT-15 colon
[14] = system: HL-60(TB) leukemia
[15] = system: HOP-62 NSCLC
[16] = system: HOP-92 NSCLC
[17] = system: HS 578T breast
[18] = system: HT29 colon
[19] = system: IGROV1 ovarian
[20] = system: K-562 leukemia
[21] = system: KM12 colon
[22] = system: LOX IMVI melanoma
[23] = system: M14 melanoma
[24] = system: MALME-3M melanoma
[25] = system: MCF7 breast
[26] = system: MDA-MB-231 breast
[27] = system: MDA-MB-435
[28] = system: MOLT-4 leukemia
[29] = system: NCI-H226 lung

SMILES: N=C(N)SCc1c2ccccc2c(CSC(=N)N)c2ccccc12
- GI50 [1]: 9.35 µM
- TGI [1]: 24 µM
- GI50 [2]: 7.42 µM
- TGI [2]: 22.9 µM
- GI50 [3]: 3.61 µM
- TGI [3]: 30.9 µM
- GI50 [4]: 3.99 µM
- TGI [4]: 18.5 µM
- GI50 [5]: 16.9 µM
- TGI [5]: 58.3 µM
- GI50 [6]: 7.28 µM
- TGI [6]: 27.7 µM
- GI50 [7]: 4.7 µM
- TGI [7]: 36.1 µM
- GI50 [8]: 2.75 µM
- TGI [8]: 14.1 µM
- GI50 [9]: 5.63 µM
- TGI [9]: 20 µM
- GI50 [10]: 13.4 µM
- TGI [10]: 51.6 µM
- GI50 [11]: 11.3 µM
- TGI [11]: 23.7 µM
- GI50 [12]: 2.59 µM
- TGI [12]: 16.6 µM
- GI50 [13]: 12.4 µM
- TGI [13]: 32.4 µM
- GI50 [14]: 4.06 µM
- TGI [14]: 23.3 µM
- GI50 [15]: 10.5 µM
- TGI [15]: 26.5 µM
- GI50 [16]: 2.8 µM
- TGI [16]: 19.9 µM
- GI50 [17]: 5.75 µM
- TGI [17]: 34.3 µM
- GI50 [18]: 5.94 µM
- TGI [18]: 21.9 µM
- GI50 [19]: 18.2 µM
- TGI [19]: 78.4 µM
- GI50 [20]: 3.51 µM
- TGI [20]: 17.9 µM
- GI50 [21]: 10.3 µM
- TGI [21]: 23.4 µM
- GI50 [22]: 1.4 µM
- TGI [22]: 21.9 µM
- GI50 [23]: 10.9 µM
- TGI [23]: 25.5 µM
- GI50 [24]: 6.85 µM
- TGI [24]: 25.2 µM
- GI50 [25]: 1.54 µM
- TGI [25]: 15.5 µM
- GI50 [26]: 12 µM
- TGI [26]: 45.1 µM
- GI50 [27]: 12.1 µM
- TGI [27]: 32.6 µM
- GI50 [28]: 1.24 µM
- TGI [28]: 8.23 µM
- GI50 [29]: 6.44 µM
- TGI [29]: 30.6 µM
